Counter-ions that a name gives are not always drawn.
Target: T1, human mGluR5 (Homo sapiens, UniProt P41594)
T1 construct: expressed in transfected cells
Experiment: Experiment for receptor function of mGluR5 (Ca2+-dependent fluorescence, FLIPR, CHO-K1 cells stably expressing human mGluR5)
Assay type: cell-based
Details: L-glutamic acid 10 μM, Fluo-4 fluorescence
Outline: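 Fluo-4-loaded CHO-K1 cells pre-incubated 2 min with test substance, then stimulated with L-glutamic acid (final 10 μM) in HBSS, pH 7.4. FLIPR Ca2+ fluorescence normalized to glutamate alone (100%) and glutamate with 10 μM MPEP (0%); IC50 estimated by logistic fit.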

T1 sequence (P41594 21-1212): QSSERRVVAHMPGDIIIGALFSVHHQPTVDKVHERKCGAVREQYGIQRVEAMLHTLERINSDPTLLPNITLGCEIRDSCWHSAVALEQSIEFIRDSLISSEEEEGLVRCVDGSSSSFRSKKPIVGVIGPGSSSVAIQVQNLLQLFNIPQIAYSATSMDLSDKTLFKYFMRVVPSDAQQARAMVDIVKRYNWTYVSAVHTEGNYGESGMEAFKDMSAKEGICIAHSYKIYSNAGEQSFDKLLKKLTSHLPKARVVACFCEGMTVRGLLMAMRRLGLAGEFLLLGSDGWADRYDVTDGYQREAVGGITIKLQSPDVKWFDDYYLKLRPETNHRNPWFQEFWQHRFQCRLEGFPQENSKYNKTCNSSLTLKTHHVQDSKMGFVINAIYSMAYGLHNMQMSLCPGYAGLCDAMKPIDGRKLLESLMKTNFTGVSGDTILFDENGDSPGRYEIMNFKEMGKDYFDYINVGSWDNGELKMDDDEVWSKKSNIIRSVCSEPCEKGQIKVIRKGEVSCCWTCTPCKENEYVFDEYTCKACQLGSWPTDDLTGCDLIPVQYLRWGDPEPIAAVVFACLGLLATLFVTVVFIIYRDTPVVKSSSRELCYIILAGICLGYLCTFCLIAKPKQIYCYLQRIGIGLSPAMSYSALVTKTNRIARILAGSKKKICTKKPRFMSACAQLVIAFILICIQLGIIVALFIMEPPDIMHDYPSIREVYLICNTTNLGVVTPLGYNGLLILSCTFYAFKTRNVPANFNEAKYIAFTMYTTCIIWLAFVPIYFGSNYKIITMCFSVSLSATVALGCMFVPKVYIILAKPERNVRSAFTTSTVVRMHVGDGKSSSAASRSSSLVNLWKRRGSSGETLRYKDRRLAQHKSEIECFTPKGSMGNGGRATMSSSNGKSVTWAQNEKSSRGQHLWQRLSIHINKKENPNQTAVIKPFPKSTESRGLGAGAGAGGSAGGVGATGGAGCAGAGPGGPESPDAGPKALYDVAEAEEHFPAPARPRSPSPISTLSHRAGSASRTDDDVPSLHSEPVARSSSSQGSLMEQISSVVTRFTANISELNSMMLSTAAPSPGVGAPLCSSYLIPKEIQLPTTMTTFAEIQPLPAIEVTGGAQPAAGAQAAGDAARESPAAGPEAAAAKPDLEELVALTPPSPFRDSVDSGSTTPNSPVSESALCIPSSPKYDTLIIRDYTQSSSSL

| IC50 [nM] | Structure (SMILES) |
| --- | --- |
| 59.9 | O=[N+]([O-])c1cccc(-c2cc(OCc3ccccn3)nc3c2CCC3)c1 [Example 63, 4-(3-Nitrophenyl)-2-(pyridin-2-ylmethoxy)-6,7-dihydro-5H-cyclopenta[b]pyridine] |
| 102 | Cc1ncc(-c2cc(OCc3ccccn3)nc3c2CCCC3)s1 [Example 225, 4-(2-Methyl-1,3-thiazol-5-yl)-2-(pyridin-2-ylmethoxy)-5,6,7,8-tetrahydroquinoline hydrochloride] |
| 45.6 | CNc1cncc(-c2cc(OCc3ccccn3)nc3c2CCCC3)c1 [Example 125, N-Methyl-5-[2-(pyridin-2-ylmethoxy)-5,6,7,8-tetrahydroquinolin-4-yl]pyridin-3-amine] |
| 72.7 | OCc1cncc(-c2cc(OCc3ccccn3)nc3c2CCCC3)c1 [Example 122, {5-[2-(Pyridin-2-ylmethoxy)-5,6,7,8-tetrahydroquinolin-4-yl]pyridin-3-yl}methanol hydrochloride] |
| 166 | N#Cc1ncc(-c2cc(OCc3ncc(F)cc3F)nc3c2CCC3)cn1 [Example 44, 5-{2-[(3,5-Difluoropyridin-2-yl)methoxy]-6,7-dihydro-5H-cyclopenta[b]pyridin-4-yl}pyrimidine-2-carbonitrile] |
| 31 | Fc1cnccc1COc1cc(-c2cncnc2)c2c(n1)CCC2 [Example 32, 2-[(3-Fluoropyridin-4-yl)methoxy]-4-(pyrimidin-5-yl)-6,7-dihydro-5H-cyclopenta[b]pyridine] |
| 82 | N#Cc1ccc(COc2cc(-c3cccnn3)c3c(n2)CCC3)nc1 [Example 275, 6-({[4-(Pyridazin-3-yl)-6,7-dihydro-5H-cyclopenta[b]pyridin-2-yl]oxy}methyl)pyridine-3-carbonitrile] |
| 206 | CN(C)C(=O)c1cncc(-c2cc(OCc3ccccn3)nc3c2CCCC3)c1 [Example 120, N,N-Dimethyl-5-[2-(pyridin-2-ylmethoxy)-5,6,7,8-tetrahydroquinolin-4-yl]pyridine-3-carboxamide hydrochloride] |
| 52 | N#Cc1ccc(COc2cc(-c3cncc(CO)c3)c3c(n2)CCC3)cc1 [Example 247, 4-[({4-[5-(Hydroxymethyl)pyridin-3-yl]-6,7-dihydro-5H-cyclopenta[b]pyridin-2-yl}oxy)methyl]benzonitrile] |
| 93 | COc1cncc(-c2cc(OCc3ccccn3)nc3c2CCCC3)n1 [Example 205, 4-(6-Methoxypyrazin-2-yl)-2-(pyridin-2-ylmethoxy)-5,6,7,8-tetrahydroquinoline hydrochloride] |
| 11.4 | c1ccc(COc2cc(-c3cnccn3)c3c(n2)CCCC3)nc1 [Example 194, 4-(Pyrazin-2-yl)-2-(pyridin-2-ylmethoxy)-5,6,7,8-tetrahydroquinoline hydrochloride] |
| 45 | Cc1ncc(-c2cc(OCc3ccccc3)nc3c2CCC3)cn1 [Example 38, 2-(Benzyloxy)-4-(2-methylpyrimidin-5-yl)-6,7-dihydro-5H-cyclopenta[b]pyridine] |
| 55.6 | Fc1cccc(-c2cc(OCc3ccccn3)nc3c2CCC3)c1 [Example 58, 4-(3-Fluorophenyl)-2-(pyridin-2-ylmethoxy)-6,7-dihydro-5H-cyclopenta[b]pyridine] |
| 93.7 | Clc1nccnc1-c1cc(OCc2ccccn2)nc2c1CCCC2 [Example 197, 4-(3-Chloropyrazin-2-yl)-2-(pyridin-2-ylmethoxy)-5,6,7,8-tetrahydroquinoline hydrochloride] |
| 108 | N#Cc1ccc(-c2cc(OCc3ccccn3)nc3c2CCC3)cc1F [Example 66, 2-Fluoro-4-[2-(pyridin-2-ylmethoxy)-6,7-dihydro-5H-cyclopenta[b]pyridin-4-yl]benzonitrile] |
| 79 | N#Cc1ncc(-c2cc(OCc3ccccn3)nc3c2CCC3)cn1 [Example 37, 5-[2-(Pyridin-2-ylmethoxy)-6,7-dihydro-5H-cyclopenta[b]pyridin-4-yl]pyrimidine-2-carbonitrile hydrochloride] |

From US20150225404A1, “PYRIDINE DERIVATIVE AND MEDICINE” (NIPPON SHINYAKU CO., LTD., priority 2012, published 2015)
